Patent EP3958980B1, “TARGETED NOVEL TRIAZOLOTHIADIAZINE DERIVATIVES FOR THE TREATMENT OF LUNG CANCER” (Anadolu Universitesi, priority 2020, dated 2021)

The compounds below were run on caspase-3 (assay: Caspase-3 activity by flow cytometry). Conditions: A549 cells, 24 hours, IC50 concentrations.
Type: cell-based, human
Method: After the active compounds were determined with the MTT assay, their caspase-3 activities on A549 cells depending on IC50 concentrations were determined in flow cytometry with BD, Pharmingen flow cytometry kit according to the manufacturer's recommendations. Briefly, the cells were incubated at the determined doses and times with the compounds. The cells were washed twice with cold 1 X PBS. These cells were suspended with BD Cytofix/Cytoperm solution (1×10^6 cell / 0.5 mL). Then they were left to wait on ice for 20 minutes. After centrifugation, the cells were removed with the BD Cytofix/Cytoperm solution. The cells were washed twice with BD Perm/Wash™ buffer (1×10^6 cell/0.5 mL). Afterwards the cells were re-suspended with BD Perm/Wash™ buffer and antibodies and they were kept at room temperature for 30 minutes. For each test, the cells were washed in 1 mL BD Perm/Wash^TM buffer and were suspended in 0.5 mL BD Perm/Wash^TM buffer and they were analyzed with flow cytometry.

Compared with `CS(=O)(=O)c1ccc(C2=Nn3c(CCc4ccc5c(c4)OCO5)nnc3SC2)cc1` [Compound 9], `FC(F)(F)c1ccc(C2=Nn3c(CCc4ccc5c(c4)OCO5)nnc3SC2)cc1` [Compound 11, 3-[2-(1,3-Benzodioxole-5-yl)ethyl]-6-(4-trifluoromethylphenyl)-7H-[1,2,4]triazolo [3,4-b][1,3,4]thiadiazine] is higher in “Caspase-3 negative (-) cells%” value: 96.70% for the first, 97.00% for the second.

First: N.N.[Cl][Pt][Cl] [Cisplatin, reference compound]
Second: c1ccc(-c2ccc(C3=Nn4c(CCc5ccc6c(c5)OCO6)nnc4SC3)cc2)cc1 [Compound 14, 3-[2-(1,3-Benzodioxole-5-yl)ethyl]-6-(biphenyl-4-yl)-7H-[1,2,4]triazolo[3,4-b] [1,3,4]thiadiazine]
The “Caspase-3 negative (-) cells%” value of the first is lower: 89.70% for the first, 96.60% for the second.

`Fc1cccc(C2=Nn3c(CCc4ccc5c(c4)OCO5)nnc3SC2)c1` [Compound 12, 3-[2-(1,3-Benzodioxole-5-yl)ethyl]-6-(3-fluorophenyl)-7H-[1,2,4]triazolo [3,4-b] [1,3,4]thiadiazine] was tested, and the “Caspase-3 negative (-) cells%” value was 97.80%.

Compared with `CS(=O)(=O)c1ccc(C2=Nn3c(CCc4ccc5c(c4)OCO5)nnc3SC2)cc1` [Compound 9], `FC(F)(F)c1ccc(C2=Nn3c(CCc4ccc5c(c4)OCO5)nnc3SC2)cc1` [Compound 11, 3-[2-(1,3-Benzodioxole-5-yl)ethyl]-6-(4-trifluoromethylphenyl)-7H-[1,2,4]triazolo [3,4-b][1,3,4]thiadiazine] is lower in “Caspase-3 positive (+) cells%” value: 3.40% for the first, 3.10% for the second.

Going from `N.N.[Cl][Pt][Cl]` [Cisplatin, reference compound] to `c1ccc(-c2ccc(C3=Nn4c(CCc5ccc6c(c5)OCO6)nnc4SC3)cc2)cc1` [Compound 14, 3-[2-(1,3-Benzodioxole-5-yl)ethyl]-6-(biphenyl-4-yl)-7H-[1,2,4]triazolo[3,4-b] [1,3,4]thiadiazine], the “Caspase-3 positive (+) cells%” value falls from 10.30% to 3.70%.

For `Fc1cccc(C2=Nn3c(CCc4ccc5c(c4)OCO5)nnc3SC2)c1` [Compound 12, 3-[2-(1,3-Benzodioxole-5-yl)ethyl]-6-(3-fluorophenyl)-7H-[1,2,4]triazolo [3,4-b] [1,3,4]thiadiazine], the “Caspase-3 positive (+) cells%” value was 2.40%.
